≈ marks a conversion by molar mass, not a printed value.
Test system: HL 60 cells
Assay: MTT cytotoxicity / antiproliferative assay on HL 60 cells
Format: cell-based
Conditions: Homo sapiens, Embodiment 1, 24 hours, read-out: 50% inhibition concentration (IC50) on HL 60 cells by MTT assay
Method: Human leukemia HL 60 cell line was purchased from American Type Culture Collection (ATCC, Manassas, Va.) and incubated in RPMI 1640 medium supplemented with 10% fetal calf serum, 2 mM glutamine, 100 units/ml penicillin and 100 μg/ml streptomycin at 37° C. in a humidified atmosphere of 5% carbon dioxide.
Cell viability was determined by the trypan blue dye exclusion and cytotoxicity was assessed by MTT assay. First, 1×10^5 HL 60 cells were plated in 96-well plates and treated with different concentrations of EEAC dissolved in dimethyl sulfoxide (DMSO) at the concentrations of 0 to 150 μg/ml for 24 hours. Death cells then were stained with trypan blue, and the survival cells were calculated with hemocytometer. In MTT assay, 1.2 mg/ml MTT was added in each well, which was incubated for 2 hours to form […], formazan. Formazan was dissolved in DMSO, and absorbance was detected at a wavelength of 570 nm.

Molecule `C=C(CC[C@@H](C)C1CCC2C3=C(C(=O)CC21C)C1(C)CCC(=O)[C@@H](C)C1CC3=O)C(C)C(=O)O` (stereo partly shown) [zhankuic acid A] has an IC50 of 5.45 µg/mL (≈ 11.6 µM).

Source: patent publication US8883167B2, “Ethanol extract of Antrodia camphorata for inducing apoptosis and preparation method thereof” (Kaohsiung Medical University, priority 2009, dated 2014)
